Measurements published in the NIST ThermoML archive (doi:10.1021/je400332j).

Test: xn = mol fraction of the nth substance listed
Settings: 101 kPa, Liquid; for viscosity: Concentric cylinders viscometry; for mass density: Vibrating tube method

CCCn1cc[n+](C)c1.F[B-](F)(F)F [1-propyl-3-methylimidazolium tetrafluoroborate] + CCn1cc[n+](C)c1.F[B-](F)(F)F
Settings	mass density [kg/m3]	viscosity [mPa·s]
293.15 K, x2 = 0	1239.3	95.44
293.15 K, x2 = 0.1003	1243.5	88.85
293.15 K, x2 = 0.2001	1247.8	82.33
293.15 K, x2 = 0.2997	1251.7	76.28
293.15 K, x2 = 0.3999	1256.1	70.61
293.15 K, x2 = 0.4996	1260.6	65.46
293.15 K, x2 = 0.5991	1265	60.73
293.15 K, x2 = 0.6997	1269.7	56.34
293.15 K, x2 = 0.7999	1274.4	52.31
293.15 K, x2 = 0.8998	1279.2	48.61
298.15 K, x2 = 0	1235.7	74.04
298.15 K, x2 = 0.1003	1239.8	69.32
298.15 K, x2 = 0.2001	1244	64.62
298.15 K, x2 = 0.2997	1248	60.23
298.15 K, x2 = 0.3999	1252.4	56.1
298.15 K, x2 = 0.4996	1256.9	52.32
298.15 K, x2 = 0.5991	1261.3	48.83
298.15 K, x2 = 0.6997	1266	45.57
298.15 K, x2 = 0.7999	1270.6	42.59
298.15 K, x2 = 0.8998	1275.5	39.79
303.15 K, x2 = 0	1232	58.59
303.15 K, x2 = 0.1003	1236.2	55.12
303.15 K, x2 = 0.2001	1240.4	51.66
303.15 K, x2 = 0.2997	1244.3	48.42
303.15 K, x2 = 0.3999	1248.7	45.34
303.15 K, x2 = 0.4996	1253.2	42.52
303.15 K, x2 = 0.5991	1257.5	39.91
303.15 K, x2 = 0.6997	1262.1	37.45
303.15 K, x2 = 0.7999	1266.9	35.17
303.15 K, x2 = 0.8998	1271.7	33.06
308.15 K, x2 = 0	1228.3	47.16
308.15 K, x2 = 0.1003	1232.5	44.58
308.15 K, x2 = 0.2001	1236.6	41.98
308.15 K, x2 = 0.2997	1240.7	39.54
308.15 K, x2 = 0.3999	1245	37.21
308.15 K, x2 = 0.4996	1249.3	35.08
308.15 K, x2 = 0.5991	1253.8	33.08
308.15 K, x2 = 0.6997	1258.4	31.19
308.15 K, x2 = 0.7999	1263.1	29.45
308.15 K, x2 = 0.8998	1267.7	27.82
313.15 K, x2 = 0	1224.7	38.56
313.15 K, x2 = 0.1003	1228.8	36.6
313.15 K, x2 = 0.2001	1233	34.63
313.15 K, x2 = 0.2997	1237	32.76
313.15 K, x2 = 0.3999	1241.3	30.97
313.15 K, x2 = 0.4996	1245.6	29.33
313.15 K, x2 = 0.5991	1250.1	27.78
313.15 K, x2 = 0.6997	1254.6	26.3
313.15 K, x2 = 0.7999	1259.3	24.95
313.15 K, x2 = 0.8998	1264	23.67
318.15 K, x2 = 0	1221	31.98
318.15 K, x2 = 0.1003	1225.1	30.46
318.15 K, x2 = 0.2001	1229.3	28.93
318.15 K, x2 = 0.2997	1233.3	27.48
318.15 K, x2 = 0.3999	1237.6	26.08
318.15 K, x2 = 0.4996	1241.9	24.8
318.15 K, x2 = 0.5991	1246.3	23.6
318.15 K, x2 = 0.6997	1250.9	22.43
318.15 K, x2 = 0.7999	1255.6	21.36
318.15 K, x2 = 0.8998	1260.3	20.35
323.15 K, x2 = 0	1217.4	26.83
323.15 K, x2 = 0.1003	1221.5	25.66
323.15 K, x2 = 0.2001	1225.6	24.47
323.15 K, x2 = 0.2997	1229.7	23.33
323.15 K, x2 = 0.3999	1233.9	22.21
323.15 K, x2 = 0.4996	1238.2	21.2
323.15 K, x2 = 0.5991	1242.6	20.24
323.15 K, x2 = 0.6997	1247.1	19.31
323.15 K, x2 = 0.7999	1251.8	18.46
323.15 K, x2 = 0.8998	1256.5	17.65
328.15 K, x2 = 0	1213.8	22.77
328.15 K, x2 = 0.1003	1217.9	21.85
328.15 K, x2 = 0.2001	1222	20.91
328.15 K, x2 = 0.2997	1226	20.01
328.15 K, x2 = 0.3999	1230.3	19.1
328.15 K, x2 = 0.4996	1234.6	18.3
328.15 K, x2 = 0.5991	1238.9	17.52
328.15 K, x2 = 0.6997	1243.4	16.78
328.15 K, x2 = 0.7999	1248.1	16.07
328.15 K, x2 = 0.8998	1252.8	15.43
333.15 K, x2 = 0	1210.2	19.54
333.15 K, x2 = 0.1003	1214.3	18.8
333.15 K, x2 = 0.2001	1218.4	18.05
333.15 K, x2 = 0.2997	1222.4	17.32
333.15 K, x2 = 0.3999	1226.6	16.57
333.15 K, x2 = 0.4996	1230.9	15.92
333.15 K, x2 = 0.5991	1235.2	15.29
333.15 K, x2 = 0.6997	1239.8	14.67
333.15 K, x2 = 0.7999	1244.4	14.1
333.15 K, x2 = 0.8998	1249.1	13.58
338.15 K, x2 = 0	1206.6	16.92
338.15 K, x2 = 0.1003	1210.7	16.33
338.15 K, x2 = 0.2001	1214.8	15.72
338.15 K, x2 = 0.2997	1218.8	15.12
338.15 K, x2 = 0.3999	1222.9	14.49
338.15 K, x2 = 0.4996	1227.3	13.96
338.15 K, x2 = 0.5991	1231.6	13.43
338.15 K, x2 = 0.6997	1236.1	12.94
338.15 K, x2 = 0.7999	1240.7	12.46
338.15 K, x2 = 0.8998	1245.4	12.04
343.15 K, x2 = 0	1203	14.77
343.15 K, x2 = 0.1003	1207.1	14.3
343.15 K, x2 = 0.2001	1211.1	13.8
343.15 K, x2 = 0.2997	1215.2	13.3
343.15 K, x2 = 0.3999	1219.4	12.77
343.15 K, x2 = 0.4996	1223.7	12.32
343.15 K, x2 = 0.5991	1228	11.89
343.15 K, x2 = 0.6997	1232.5	11.47
343.15 K, x2 = 0.7999	1237.1	11.07
343.15 K, x2 = 0.8998	1241.7	10.74
